Read-outs that look alike come from different tables or passages of the source.
Key:
Type in all cases: in vivo
Pieris rapae = test: Insecticidal activity, spray on pre-infested radish plants: Pieris rapae; conditions: 144 h, read-out: fatality rate on Pieris rapae
Summary of the method: (§1)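 Radish plants 12–15 days old, each pre-infested with 30–40 larvae, were sprayed with compound dissolved in a suitable solvent, in triplicate. Plants were held at 25 °C and 70% RH for 6 days. Mortality was then scored visually.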

Chilo suppressalis = test: Insecticidal activity, spray on pre-infested radish plants: Chilo suppressalis; conditions: for pest or weed control at 0.1 ppm / pest or weed control at 1 ppm / pest or weed control at 10 ppm: Chilo suppressalis, 144 h, read-out: fatality rate on Chilo suppressalis; for Fatality rate on Chilo suppressalis (%): Table 3
Summary of the method: as §1

[1] = test system: Frankliniella occidentalis; test: Insecticidal activity, spray on pre-infested radish plants: Frankliniella occidentalis; conditions: for pest or weed control at 1 ppm / pest or weed control at 10 ppm / pest or weed control at 25 ppm: Frankliniella occidentalis, 144 h, read-out: fatality rate on Frankliniella occidentalis; for Fatality rate on Frankliniella occidentalis (%): Table 3
Summary of the method: as §1

Spodoptera litura = test: Insecticidal activity, spray on pre-infested radish plants: Spodoptera litura; conditions: 144 h, read-out: fatality rate on Spodoptera litura
Summary of the method: as §1

Cnaphalocrocis medinalis = test: Insecticidal activity, spray on pre-infested radish plants: Cnaphalocrocis medinalis; conditions: 144 h, read-out: fatality rate on Cnaphalocrocis medinalis
Summary of the method: as §1

Plutella xylostella = test: Insecticidal activity, spray on pre-infested radish plants: Plutella xylostella; conditions: for pest or weed control at 0.1 ppm / pest or weed control at 1 ppm / pest or weed control at 10 ppm: Plutella xylostella, 144 h, read-out: fatality rate on Plutella xylostella; for Fatality rate on Plutella xylostella (%): Table 3
Summary of the method: as §1

Tetranychus cinnabarinus = test: Acaricidal activity, slide immersion of female adult mites: Tetranychus cinnabarinus; conditions: read-out: fatality rate on Tetranychus cinnabarinus
Summary of the method: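 Female adult mites stuck dorsally on tape on slides (4 rows of 10), dipped 5 s in test solution, excess blotted, incubated 24 h. Mites with immobile feet on brush touch scored dead; fatality rate calculated.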

Mythimna separata = test: Insecticidal activity, spray on pre-infested radish plants: Mythimna separata; conditions: for pest or weed control at 0.1 ppm / pest or weed control at 1 ppm / pest or weed control at 10 ppm: Mythimna separata, 144 h, read-out: fatality rate on Mythimna separata; for Fatality rate on Mythimna separata (%): Table 3
Summary of the method: as §1

[2] = dose 1 ppm, immersion 5 seconds, checked after 24 hours
[3] = dose 10 ppm, immersion 5 seconds, checked after 24 hours
[4] = dose 25 ppm, immersion 5 seconds, checked after 24 hours

Cc1cc(C2=NOC(c3cc(F)c(F)c(F)c3)(C(F)(F)F)C2)ccc1C(=O)NCc1ncc(Cl)cc1Cl (stereo not drawn) [Compound 12]
pest or weed control at 0.1 ppm (Pieris rapae; dose 0.1 ppm, spray, 6 days): > 80% | pest or weed control at 1 ppm (Pieris rapae; dose 1 ppm, spray, 6 days): > 80% | pest or weed control at 10 ppm (Pieris rapae; dose 10 ppm, spray, 6 days): > 80% | pest or weed control at 0.1 ppm (Chilo suppressalis; dose 0.1 ppm, spray, 6 days): > 80% | pest or weed control at 1 ppm (Chilo suppressalis; dose 1 ppm, spray, 6 days): > 80% | pest or weed control at 10 ppm (Chilo suppressalis; dose 10 ppm, spray, 6 days): > 80% | pest or weed control at 1 ppm ([1]; dose 1 ppm, spray, 6 days): > 80% | pest or weed control at 10 ppm ([1]; dose 10 ppm, spray, 6 days): > 80% | pest or weed control at 25 ppm ([1]; dose 25 ppm, spray, 6 days): > 80% | pest or weed control at 0.1 ppm (Spodoptera litura; dose 0.1 ppm, spray, 6 days): > 80% | pest or weed control at 1 ppm (Spodoptera litura; dose 1 ppm, spray, 6 days): > 80% | pest or weed control at 10 ppm (Spodoptera litura; dose 10 ppm, spray, 6 days): > 80% | pest or weed control at 0.1 ppm (Cnaphalocrocis medinalis; dose 0.1 ppm, spray, 6 days): > 80% | pest or weed control at 1 ppm (Cnaphalocrocis medinalis; dose 1 ppm, spray, 6 days): > 80% | pest or weed control at 10 ppm (Cnaphalocrocis medinalis; dose 10 ppm, spray, 6 days): > 80% | pest or weed control at 0.1 ppm (Plutella xylostella; dose 0.1 ppm, spray, 6 days): > 80% | pest or weed control at 1 ppm (Plutella xylostella; dose 1 ppm, spray, 6 days): > 80% | pest or weed control at 10 ppm (Plutella xylostella; dose 10 ppm, spray, 6 days): > 80% | pest or weed control at 1 ppm (Tetranychus cinnabarinus; [2]): > 80% | pest or weed control at 10 ppm (Tetranychus cinnabarinus; [3]): > 80% | pest or weed control at 25 ppm (Tetranychus cinnabarinus; [4]): > 80% | pest or weed control at 0.1 ppm (Mythimna separata; dose 0.1 ppm, spray, 6 days): > 80% | pest or weed control at 1 ppm (Mythimna separata; dose 1 ppm, spray, 6 days): > 80% | pest or weed control at 10 ppm (Mythimna separata; dose 10 ppm, spray, 6 days): > 80%

Cc1cc(C2=NOC(c3cc(Cl)c(F)c(Cl)c3)(C(F)(F)F)C2)ccc1C(=O)NCc1ncc(Cl)cc1Cl (stereo not drawn) [Compound 11]
pest or weed control at 0.1 ppm (Pieris rapae): > 80% | pest or weed control at 1 ppm (Pieris rapae): > 80% | pest or weed control at 10 ppm (Pieris rapae): > 80% | pest or weed control at 0.1 ppm (Chilo suppressalis): > 80% | pest or weed control at 1 ppm (Chilo suppressalis): > 80% | pest or weed control at 10 ppm (Chilo suppressalis): > 80% | pest or weed control at 1 ppm [1]: > 80% | pest or weed control at 10 ppm [1]: > 80% | pest or weed control at 25 ppm [1]: > 80% | pest or weed control at 0.1 ppm (Spodoptera litura): > 80% | pest or weed control at 1 ppm (Spodoptera litura): > 80% | pest or weed control at 10 ppm (Spodoptera litura): > 80% | pest or weed control at 0.1 ppm (Cnaphalocrocis medinalis): > 80% | pest or weed control at 1 ppm (Cnaphalocrocis medinalis): > 80% | pest or weed control at 10 ppm (Cnaphalocrocis medinalis): > 80% | pest or weed control at 0.1 ppm (Plutella xylostella): > 80% | pest or weed control at 1 ppm (Plutella xylostella): > 80% | pest or weed control at 10 ppm (Plutella xylostella): > 80% | pest or weed control at 1 ppm (Tetranychus cinnabarinus; 24 h): > 80% | pest or weed control at 10 ppm (Tetranychus cinnabarinus; 24 h): > 80% | pest or weed control at 25 ppm (Tetranychus cinnabarinus; 24 h): > 80% | pest or weed control at 0.1 ppm (Mythimna separata): > 80% | pest or weed control at 1 ppm (Mythimna separata): > 80% | pest or weed control at 10 ppm (Mythimna separata): > 80%

Cc1cc(C2=NOC(c3cc(F)c(F)c(F)c3)(C(F)(F)F)C2)ccc1C(=O)NCc1ccc(Cl)nc1 (stereo not drawn) [Compound 2, N-((6-chloropyridin-3-yl)methyl)-2-methyl-4-(5-(trifluoromethyl)-5-(3,4,5-trifluorophenyl)-4,5-dihydroisoxazol-3-yl)benzamide]
pest or weed control at 0.1 ppm (Pieris rapae; dose 0.1 ppm, spray, 6 days): > 80% | pest or weed control at 1 ppm (Pieris rapae; dose 1 ppm, spray, 6 days): > 80% | pest or weed control at 10 ppm (Pieris rapae; dose 10 ppm, spray, 6 days): > 80% | Fatality rate on Chilo suppressalis (%) (Chilo suppressalis; 0.1 ppm): 80% | Fatality rate on Chilo suppressalis (%) (Chilo suppressalis; 1 ppm): 100% | Fatality rate on Chilo suppressalis (%) (Chilo suppressalis; 10 ppm): 100% | pest or weed control at 0.1 ppm (Chilo suppressalis; dose 0.1 ppm, spray, 6 days): > 80% | pest or weed control at 1 ppm (Chilo suppressalis; dose 1 ppm, spray, 6 days): > 80% | pest or weed control at 10 ppm (Chilo suppressalis; dose 10 ppm, spray, 6 days): > 80% | Fatality rate on Frankliniella occidentalis (%) ([1]; 1 ppm): 90% | Fatality rate on Frankliniella occidentalis (%) ([1]; 10 ppm): 100% | Fatality rate on Frankliniella occidentalis (%) ([1]; 25 ppm): 100% | pest or weed control at 1 ppm ([1]; dose 1 ppm, spray, 6 days): > 80% | pest or weed control at 10 ppm ([1]; dose 10 ppm, spray, 6 days): > 80% | pest or weed control at 25 ppm ([1]; dose 25 ppm, spray, 6 days): > 80% | pest or weed control at 0.1 ppm (Spodoptera litura; dose 0.1 ppm, spray, 6 days): > 80% | pest or weed control at 1 ppm (Spodoptera litura; dose 1 ppm, spray, 6 days): > 80% | pest or weed control at 10 ppm (Spodoptera litura; dose 10 ppm, spray, 6 days): > 80% | pest or weed control at 0.1 ppm (Cnaphalocrocis medinalis; dose 0.1 ppm, spray, 6 days): > 80% | pest or weed control at 1 ppm (Cnaphalocrocis medinalis; dose 1 ppm, spray, 6 days): > 80% | pest or weed control at 10 ppm (Cnaphalocrocis medinalis; dose 10 ppm, spray, 6 days): > 80% | Fatality rate on Plutella xylostella (%) (Plutella xylostella; 0.1 ppm): 85% | Fatality rate on Plutella xylostella (%) (Plutella xylostella; 1 ppm): 100% | Fatality rate on Plutella xylostella (%) (Plutella xylostella; 10 ppm): 100% | pest or weed control at 0.1 ppm (Plutella xylostella; dose 0.1 ppm, spray, 6 days): > 80% | pest or weed control at 1 ppm (Plutella xylostella; dose 1 ppm, spray, 6 days): > 80% | pest or weed control at 10 ppm (Plutella xylostella; dose 10 ppm, spray, 6 days): > 80% | pest or weed control at 1 ppm (Tetranychus cinnabarinus; [2]): > 80% | pest or weed control at 10 ppm (Tetranychus cinnabarinus; [3]): > 80% | pest or weed control at 25 ppm (Tetranychus cinnabarinus; [4]): > 80% | Fatality rate on Mythimna separata (%) (Mythimna separata; 0.1 ppm): 85% | Fatality rate on Mythimna separata (%) (Mythimna separata; 1 ppm): 100% | Fatality rate on Mythimna separata (%) (Mythimna separata; 10 ppm): 100% | pest or weed control at 0.1 ppm (Mythimna separata; dose 0.1 ppm, spray, 6 days): > 80% | pest or weed control at 1 ppm (Mythimna separata; dose 1 ppm, spray, 6 days): > 80% | pest or weed control at 10 ppm (Mythimna separata; dose 10 ppm, spray, 6 days): > 80%
